Source: patent US9084799B2, “Inhaled combination therapy” (Pulmagen Therapeutics (Synergy) Limited, priority 2005, dated 2015)
Like-named read-outs stand apart in the source and are kept apart here.

Assays:
[1] = Single inhaled exposure, dose 187.5 mg; asthma patients; Bohadana et al. (1980); cited from earlier work
[2] = test system: TS induced BAL inflammation; experiment: Tobacco smoke (TS) induced BAL inflammation, 11 daily exposures, BAL cell counts; type: in vivo, A/J mice; details: for % Inhibition, BAL Total cells / % Inhibition, BAL lymphocytes / % Inhibition, BAL macrophages / % Inhibition, BAL neutrophils: 24 hrs following 11 daily TS exposures
Text: Female inbred A/J mice (body weights on initial day of use: ˜20 g) were obtained from Harlan, full barrier bred and certified free from specified micro-organisms on receipt. The mice were housed, up to 5 per cage, in individually ventilated, polycarbonate solid bottomed cages (IVC) with grade 8 aspen chip bedding. Environment (airflow, temperature and humidity) within the cages was controlled by the IVC system (Techniplast). Food (RM 1, Special Diet Services) and water were provided ad libitum. Individual animals were identified by unique coloured “pentel” markings on their tails, weighed and randomly assigned to treatment groups.
In this exposure protocol, mice were exposed in groups of 5 in individual clear polycarbonate chambers (27 cm×16 cm×12 cm). The TS from the cigarettes was allowed to enter the exposure chambers at a flow rate of 100 ml/min. In order to minimise any potential problems caused by repeated exposure to a high level of TS (6 cigarettes), the exposure of the mice to TS was increased gradually over the exposure period to a maximum of 6 cigarettes. The exposure schedule used in this study was as follows:
A further group of mice were exposed to air on a daily basis for equivalent lengths of time as controls (no TS exposure).
The trachea was cannulated using a Portex nylon intravenous cannula (pink luer fitting) shortened to approximately 8 mm. Phosphate buffered saline (PBS) containing heparin (10 units/ml) was used as the lavage fluid. A volume of 0.4 ml was gently instilled and withdrawn 3 times using a 1 ml syringe and then placed in an Eppendorf tube and kept on ice prior to subsequent determinations.
Lavage fluid was separated from cells by centrifugation and the supernatant decanted and frozen for subsequent analysis. The cell pellet was re-suspended in a known volume of PBS and total cell numbers calculated by counting a stained (Turks stain) aliquot under a microscope using a haemocytometer.
The residual cell pellet was diluted to approximately 10^5 cells per ml. A volume of 500 μl was placed in the funnel of a cytospin slide and centrifuged for 8 min at 800 rpm. The slide was air dried and stained using ‘Kwik-Diff’ solutions (Shandon) as per the proprietary instructions. When dried and cover-slipped, differential cells were counted using light microscopy. Up to 400 cells were counted by unbiased operator using light microscopy. Cells were differentiated using standard morphometric techniques.
Since tests for normality were positive the data was subjected to a one way analysis of variance test (ANOVA), followed by a Bonferroni correction for multiple comparisons in order to test for significance between treatment groups. A “p” value of <0.05 was considered to be statistically significant. Percentage inhibitions were automatically calculated within the Excel spreadsheets for the cell data using the formula below: […]

[3] = intra-nasal 0.1 mg/kg theophylline/0.1 mg/kg dexamethasone versus oral 1 mg/kg theophylline/0.3 mg/kg dexamethasone
Procedure: (§1) The mice were terminally anaesthetised and blood collected by cardiac puncture into syringes containing 20 U lithium Heparin in 5 ul. The collected blood was mixed and decanted into eppendorf tubes before centrifugation in a microfuge. Plasma was collected and stored at −80° C. prior to analysis by an HPLC/MS/MS method. The equipment used in the measurement of plasma levels were a Micromann Quatro Micro Mass Spectrometer (Micromass UK Limited) and a Waters 2795 Alliance HT liquid chromatograph (Waters USA).
(§2) Samples were prepared for analysis by adding 200 μl of acetonitrile (containing 0.25 mg/l dextrorphan as an internal standard) to 50 μl of each thawed sample and standard and mixed vigorously. Each sample and standard was then centrifuged at 10000 g for 2 minutes and the supernatant removed for LC-MS/MS analysis.
(§3) Positive ions for parent compound and a specific fragment product were monitored in a Multiple Reaction Monitoring mode using a Micromass Quatro Micro Mass Spectrometer with Micromass MassLynx software version 4.0. A 25 μl aliquot of each sample and standard was injected onto the liquid chromatography system. Lowest order of quantification (LOQ) was determined as 0.016 mg/L with the detection limit being 0.003 mg/L.

[4] = cited from earlier work
[5] = cited from earlier work; remark: listed apart in the source
in vivo = details: A/J, mouse, 1 hour post dosing
Procedure: as §1, §2, §3

[6] = test system: key inflammatory cells in COPD; details: 500 mcg inhaled twice daily, 3 months, COPD patients; Hattatowa et al. 2002; cited from earlier work
mouse model of asthma = details: 350 mcg/kg intra-nasally; Shen et al. 2002; cited from earlier work
[7] = Intra-nasal dosing, Dexamethasone 0.1 mg/kg
[8] = Oral dosing, Dexamethasone 0.3 mg/kg
[9] = Intra-nasal dosing, Theophylline 0.5 mg/kg
[10] = Oral dosing, Theophylline 3 mg/kg
[11] = monotherapy, oral or intra-nasal

Q: With `Cn1c(=O)c2[nH]cnc2n(C)c1=O.NCCN` [Aminophylline, theophylline ethylenediamine] as the compound, how does the “Net peak theophylline plasma level” value [1] read?
A: 0.91 mg/L

Q: With `C[C@@H]1C[C@H]2[C@@H]3CCC4=CC(=O)C=C[C@]4(C)[C@@]3(F)[C@@H](O)C[C@]2(C)[C@@]1(O)C(=O)CO` [Dexamethasone] as the compound, how does the “% Inhibition, BAL Total cells” value [2, 7] read?
A: 13%

Q: What about the “% Inhibition, BAL lymphocytes” value [2, 7] of the same compound?
A: 14%

Q: And the “% Inhibition, BAL macrophages” value [2, 7]?
A: 10%

Q: And the “% Inhibition, BAL neutrophils” value [2, 7]?
A: 16%

Q: And the “% Inhibition, BAL Total cells” value [2, 8]?
A: −16%

Q: What about the “% Inhibition, BAL lymphocytes” value [2, 8] of the same compound?
A: −7%

Q: What about the “% Inhibition, BAL macrophages” value [2, 8] of the same compound?
A: −14%

Q: What about the “% Inhibition, BAL neutrophils” value [2, 8] of the same compound?
A: −46%

Q: With `Cn1c(=O)c2[nH]cnc2n(C)c1=O` [Theophylline, 3,7-dihydro-1,3-dimethyl-1H-purine-2,6-dione] as the compound, how does the “% Inhibition, BAL Total cells” value [2, 9] read?
A: 16%

Q: And the “% Inhibition, BAL lymphocytes” value [2, 9]?
A: 14%

Q: And the “% Inhibition, BAL macrophages” value [2, 9]?
A: 3%

Q: And the “% Inhibition, BAL neutrophils” value [2, 9]?
A: 25%

Q: And the “% Inhibition, BAL Total cells” value [2, 10]?
A: −11%

Q: And the “% Inhibition, BAL lymphocytes” value [2, 10]?
A: 1%

Q: What about the “% Inhibition, BAL macrophages” value [2, 10] of the same compound?
A: −4%

Q: And the “% Inhibition, BAL neutrophils” value [2, 10]?
A: −10%

Q: And the “inhibition of total number of cells recovered in the BAL induced by TS exposure” value [2, 11]?
A: Neither theophylline nor dexamethasone monotherapy when given orally or by the intra-nasal route significantly inhibited

Q: What about the “inhibitory effect on specific cell types in BAL (macrophages, neutrophils, lymphocytes)” value [2, 11] of the same compound?
A: No statistically significant inhibitory effect

Q: What about the “systemic theophylline levels, times lower intra-nasal vs oral” value [3] of the same compound?
A: ~17 times

Q: And the “plasma concentration of theophylline, median value” ([4]; 250 or 375 mg theophylline twice daily with 400 mcg budesonide, asthma patients, Evans et al.)?
A: 8700 ng/mL

Q: What about the “Average theophylline plasma level” value ([4]; Daily dose 400 mg oral, 4 weeks, Alexander et al. (1980)) of the same compound?
A: 15.1 mg/L

Q: What about the “Average theophylline plasma level” value ([4]; Daily dose 600 mg oral, 4 weeks, Iversen et al. (1992)) of the same compound?
A: 7.1 mg/L

Q: What about the “Average theophylline plasma level” value ([4]; Daily dose 300-600 mg oral, 4 weeks, Culpitt et al. (2002)) of the same compound?
A: 9.5 mg/L

Q: And the “theophylline plasma level in 20/25 patients (average not quoted)” value ([4]; Phyllocontin or Uniphylline, daily dose 562-573 mg oral, 4 weeks, U.S. Pat. No. 6,025,360)?
A: had levels ≧5 mg/L

Q: And the mean plasma half-life ([5]; adults)?
A: about 8 hours

Q: And the “bioavailability from the gastrointestinal tract” value ([5]; oral absorption)?
A: 90-100%

Q: And the mean plasma half-life ([5]; premature neonates)?
A: approximately 30 hours

Q: What about the “time to peak levels following ingestion” value ([5]; slowed by the presence of food) of the same compound?
A: 1 to 2 h

Q: What about the mean plasma half-life ([5]; up to the age of 20) of the same compound?
A: approximately 3.5 hours

Q: And the mean plasma half-life ([5]; up to the first year of life)?
A: 5 h

Q: And the mean plasma half-life ([5]; within the first 6 months)?
A: 12 h

Q: And the concentration at 1 h (in vivo; mean theophylline plasma level, Intra-nasal 0.1 mg/kg theophylline in combination with 0.1 mg/kg Dexamethasone, TS exposed mice)?
A: 22 ± 9 ng/mL

Q: And the concentration at 1 h (in vivo; mean theophylline plasma level, Intra-nasal 0.25 mg/kg theophylline in combination with 0.1 mg/kg Dexamethasone, TS exposed mice)?
A: 45 ± 10 ng/mL

Q: What about the concentration at 1 h (in vivo; mean theophylline plasma level, Intra-nasal 0.5 mg/kg theophylline in combination with 0.1 mg/kg Dexamethasone, TS exposed mice) of the same compound?
A: 74 ± 13 ng/mL

Q: And the concentration at 1 h (in vivo; mean theophylline plasma level, Oral 1 mg/kg theophylline in combination with 0.3 mg/kg Dexamethasone, TS exposed mice)?
A: 479 ± 47 ng/mL

Q: And the concentration at 1 h (in vivo; mean theophylline plasma level, Oral 3 mg/kg theophylline in combination with 0.3 mg/kg Dexamethasone, TS exposed mice)?
A: 1370 ± 192 ng/mL

Q: And the concentration at 1 h (in vivo; systemic theophylline exposure (plasma level), intra-nasal administration at the doses used (0.1-0.5 mg/kg))?
A: < 100 ng/mL

Q: Which “reductions in key inflammatory cells in bronchial biopsies” value [6] does the source give for “(6(,11(,16(,17( )-6,9-difluoro-11-hydroxy-16-methyl-3-oxo-17-(1-oxopropoxy)androsta-1,4-diene-17-carbothioic acid S-(fluoromethyl) ester [Fluticasone]” here?
A: did not detect significant reductions

Q: For “(+)-[(RS)-16a,17a-Butylidenedioxy-11b, 21-dihydroxy-1,4-pregnadiene-3,20-dione] [Budesonide]”, which “efficacy in mouse model of asthma” value (mouse model of asthma) is on record?
A: efficacious
